Results from PubChem BioAssay AID1963972 (Molecular Pharmacology Branch, DTP, NCI, 2024).
pIC50: −log10 of the molar value.

System: 945468-187-T-J2-PDC spheroids viability
Experiment: Anticancer human tumor 945468-187-T-J2-PDC patient-derived rectal carcinoma cell line growth inhibition [PI3K]
Settings: spheroids with HUVEC and MSC; for pIC50: curve of first compound; for viability, T/C: stronger effect = lower value
Text: Combinatorial screen of targeted agents with the PI3K inhibitors inavolisib, alpelisib, duvelisib, and copanlisib in multi-cell type tumor spheroids
A high-throughput screen of multi-cell type tumor spheroids was designed to identify active combinations of targeted small molecules and PI3K pathway inhibitors. Complex spheroids include a stromal component modeled by human endothelial cells (HUVEC) and fibroblasts modeled by human mesenchymal stem cells (MSCs). The concentration ranges selected for each drug and investigational agent were based upon clinically achievable concentrations if the clinical Cmax of the agent was known.
Compounds. The drugs and investigational agents: inavolisib (NSC800729), alpelisib (NSC765974), duvelisib (NSC772469), copanlisib (NSC816437), ipatasertib (NSC767898), afuresertib (NSC778305), talazoparib (NSC767125), sapanisertib (NSC764658), selumetinib (NSC741078), tovorafenib (DAY101, NSC766906), vemurafenib (NSC761431), ravoxertinib (NSC781343), sotorasib (NSC818433), MRTX1133 (NSC 836407), abemaciclib (NSC 768073), palbociclib (NSC758247), venetoclax (NSC 766270), SY5609 (NSC837396), enzalutamide (NSC755605), and darolutamide (NSC825331), were obtained from the National Cancer Institute (NCI) Developmental Therapeutics Program Chemical Repository. The FDA-approved anticancer drug set is available from the NCI Developmental Therapeutics Program. […] The stock solutions were prepared in dimethyl sulfoxide (DMSO, Sigma-Aldrich, St. Louis, MO, cat. D2650) at 800-fold the tested concentration and stored at -70 degrees C prior to their use. All drugs and investigational agents were tested over a range starting from a high concentration at or near the clinical Cmax and decreasing in half-log increments. If the clinical Cmax for an agent had not been determined, the highest concentration tested was 10 microM.
Cell Culture. All cells were maintained in an incubator at 37 degrees C and 5% CO2 with 95% humidity. The PDC lines were cultured according to standard operating procedures established by the NCI PDMR (https://pdmr.cancer.gov/sops/default.htm). All PDCs were thawed and cultured in Matrigel-coated flasks prepared with a working solution of 1X Ham's F-12 nutrient mix, without supplementation (Invitrogen, Waltham, MA, cat. 11765054), 100 U/mL penicillin-streptomycin (Invitrogen, cat. 15140122), and 2.5% Matrigel (Corning Inc., Corning, NY, cat. 354248) for the first three passages. The 354836-022-R-J1-PDC, 475296-252-R-J1-PDC, and 997726-040-R-J2-PDC lines were cultured in 6A media, which includes advanced DMEM/F-12 (Thermo Fisher Scientific, cat. 12634028), 10 mM HEPES (Thermo Fisher Scientific, cat. 15630080), 1X GlutaMAX supplement (Thermo Fisher Scientific, cat. 35050061), 0.1 mg/mL primocin (InvivoGen, San Diego, CA, cat. ant-pm-2), 10% defined fetal bovine serum, heat inactivated (HyClone Laboratories Inc., Logan, UT, cat. SH30070.03HI), 50% L-WRN conditioned media (ATCC, cat. CRL-3276), 1.25 mM N-Acetyl-L-cysteine (Sigma-Aldrich, cat. A9165), 10 mM nicotinamide (Sigma-Aldrich, cat. N0636), 1X B-27 supplement (Thermo Fisher Scientific, cat. 17504044), 1X N-2 supplement (Thermo Fisher Scientific, cat. 17502048), and 10 microM Y-27632 dihydrochloride (Tocris Bioscience, Bristol, United Kingdom, cat. 1254). The 624824-186-R-J2-PDC line was cultured in 6C/Colon 1B media, which includes all 6A media components plus 50 ng/mL human EGF recombinant protein (Thermo Fisher Scientific, cat. PHG0311). […]

[1] = second compound 0.00316 µM, first compound 0.0316 µM
[2] = second compound 0.00316 µM, first compound 0.1 µM
[3] = second compound 0.00316 µM, first compound 0.316 µM
[4] = second compound 0.00316 µM, first compound 1 µM
[5] = second compound 0.00316 µM, first compound 3.16 µM
[6] = second compound 0.00316 µM, first compound 10 µM
[7] = second compound 0.01 µM, first compound 0.0316 µM
[8] = second compound 0.01 µM, first compound 0.1 µM
[9] = second compound 0.01 µM, first compound 0.316 µM
[10] = second compound 0.01 µM, first compound 1 µM
[11] = second compound 0.01 µM, first compound 3.16 µM
[12] = second compound 0.01 µM, first compound 10 µM
[13] = second compound 0.0316 µM, first compound 0.0316 µM
[14] = second compound 0.0316 µM, first compound 0.1 µM
[15] = second compound 0.0316 µM, first compound 0.316 µM
[16] = second compound 0.0316 µM, first compound 1 µM
[17] = second compound 0.0316 µM, first compound 3.16 µM
[18] = second compound 0.0316 µM, first compound 10 µM
[19] = second compound 0.1 µM, first compound 0.0316 µM
[20] = second compound 0.1 µM, first compound 0.1 µM
[21] = second compound 0.1 µM, first compound 0.316 µM
[22] = second compound 0.1 µM, first compound 1 µM
[23] = second compound 0.1 µM, first compound 3.16 µM
[24] = second compound 0.1 µM, first compound 10 µM
[25] = second compound 0.316 µM, first compound 0.0316 µM
[26] = second compound 0.316 µM, first compound 0.1 µM
[27] = second compound 0.316 µM, first compound 0.316 µM
[28] = second compound 0.316 µM, first compound 1 µM
[29] = second compound 0.316 µM, first compound 3.16 µM
[30] = second compound 0.316 µM, first compound 10 µM
[31] = second compound 1 µM, first compound 0.0316 µM
[32] = second compound 1 µM, first compound 0.1 µM
[33] = second compound 1 µM, first compound 0.316 µM
[34] = second compound 1 µM, first compound 1 µM
[35] = second compound 1 µM, first compound 3.16 µM
[36] = second compound 1 µM, first compound 10 µM
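Note: spheroids exposed to compounds for seven days before reading.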

`C=CC(=O)N1CCN(c2nc(=O)n(-c3c(C)ccnc3C(C)C)c3nc(-c4c(O)cccc4F)c(F)cc23)C(C)C1` (centres undefined) + CC(Nc1ccc2c(c1)OCCn1cc(N3C(=O)OCC3C(F)F)nc1-2)C(N)=O gave a pIC50 (second compound 0.00316 µM) of under 5.00, a pIC50 (second compound 0.01 µM) of under 5.00 and a pIC50 (second compound 0.0316 µM) of under 5.00. It also gave a pIC50 (second compound 0.1 µM) of under 5.00, a pIC50 (second compound 0.316 µM) of under 5.00 and a pIC50 (second compound 1 µM) of under 5.00. For the same compound, the viability, T/C [1] was 117%, the viability, T/C [2] was 108% and the viability, T/C [3] was 114%. It also gave a viability, T/C [4] of 85.1%, a viability, T/C [5] of 101% and a viability, T/C [6] of 101%. It also gave a viability, T/C [7] of 166%, a viability, T/C [8] of 98% and a viability, T/C [9] of 101%. For the same compound, the viability, T/C [10] was 120%, the viability, T/C [11] was 111% and the viability, T/C [12] was 123%. It also gave a viability, T/C [13] of 124%, a viability, T/C [14] of 117% and a viability, T/C [15] of 103%. It also gave a viability, T/C [16] of 116%, a viability, T/C [17] of 91.5% and a viability, T/C [18] of 83.6%. The viability, T/C [19] was 127%, the viability, T/C [20] was 88.1% and the viability, T/C [21] was 87.7%. It also gave a viability, T/C [22] of 98.4%, a viability, T/C [23] of 96.3% and a viability, T/C [24] of 111%. For the same compound, the viability, T/C [25] was 101%, the viability, T/C [26] was 101% and the viability, T/C [27] was 79.7%. The viability, T/C [28] was 110%, the viability, T/C [29] was 95.3% and the viability, T/C [30] was 80.1%. The viability, T/C [31] was 89.2%, the viability, T/C [32] was 98.1% and the viability, T/C [33] was 81.8%. It also gave a viability, T/C [34] of 83.4%, a viability, T/C [35] of 81.9% and a viability, T/C [36] of 83.7%.

Work on `C=CC(=O)N1CCN(c2nc(=O)n(-c3c(C)ccnc3C(C)C)c3nc(-c4c(O)cccc4F)c(F)cc23)C(C)C1` (centres undefined) + COc1c(OCCCN2CCOCC2)ccc2c3n(c(=NC(=O)c4cnc(N)nc4)nc12)CCN3 yielded a pIC50 (second compound 0.00316 µM) of under 5.00, a pIC50 (second compound 0.01 µM) of under 5.00 and a pIC50 (second compound 0.0316 µM) of under 5.00. The pIC50 (second compound 0.1 µM) was under 5.00, the pIC50 (second compound 0.316 µM) was over 7.50 and the pIC50 (second compound 1 µM) was over 7.50. For the same compound, the viability, T/C [1] was 92.6%, the viability, T/C [2] was 99.4% and the viability, T/C [3] was 107%. For the same compound, the viability, T/C [4] was 98.4%, the viability, T/C [5] was 103% and the viability, T/C [6] was 120%. It also gave a viability, T/C [7] of 94.6%, a viability, T/C [8] of 100% and a viability, T/C [9] of 82.8%. The viability, T/C [10] was 96.1%, the viability, T/C [11] was 98% and the viability, T/C [12] was 117%. It also gave a viability, T/C [13] of 90.6%, a viability, T/C [14] of 90.1% and a viability, T/C [15] of 108%. It also gave a viability, T/C [16] of 108%, a viability, T/C [17] of 94.7% and a viability, T/C [18] of 97.3%. The viability, T/C [19] was 81.4%, the viability, T/C [20] was 98.1% and the viability, T/C [21] was 73.1%. For the same compound, the viability, T/C [22] was 85.6%, the viability, T/C [23] was 85% and the viability, T/C [24] was 93.2%. It also gave a viability, T/C [25] of 36.9%, a viability, T/C [26] of 37.9% and a viability, T/C [27] of 51.2%. It also gave a viability, T/C [28] of 46.7%, a viability, T/C [29] of 37.2% and a viability, T/C [30] of 48.5%. The viability, T/C [31] was 17.9%, the viability, T/C [32] was 21.1% and the viability, T/C [33] was 21.7%. The viability, T/C [34] was 20.7%, the viability, T/C [35] was 22.7% and the viability, T/C [36] was 20.9%.
